One assay deals with A2780 cells. In words: (Photo-)cytotoxicity on 2D cell monolayers, resazurin assay. It counts as cell-based, human. Conditions: A2780, normoxic, dark, 4 h exposure, total 48 h incubation, read-out: IC50 Dark. The method, then:
(§1) The 2D cytotoxicity and phototoxicity profiles of Os‐Pt‐Cer and controls, were evaluated in a panel of cancerous cell lines, including A2780 (ovarian carcinoma), A549 (non‐small cell lung carcinoma), and MCA205 (murine fibrosarcoma), as well as a non‐cancerous retinal pigment epithelial cell line (RPE‐1). Cells were treated with the compounds (0.003–100 µM) for 4 h, either kept in the dark or irradiated at 670 nm (13.5 J cm^− ^2) (Table S4 and Figure S22) or 740 nm (12.6 J cm^− ^2) and viability was assessed 44 h post‐treatment. To verify robustness, the incubation was extended to 72 h. […]
(§2) Human ovarian cancer (A2780) cells and mouse fibrosarcoma cells (MCA205) were cultured in RPMI media. Retinal pigment epithelium (RPE -1) cells were cultured in DMEM/F -12 medium. Lung cancer cells (A549) were cultured in F -12K medium. These cell lines were complemented with 10% of fetal bovine serum, 100 U/mL penicillin -streptomycin mixture, and maintained in a humidified atmosphere […]
(§3) (Photo-)cytotoxicity on 2D cell monolayers
(§4) The cytotoxicity of the compounds was assessed by measuring cell viability using a resazurin assay.
(§5) The cells were seeded in triplicates in 96 well plates with a density of 10 4 cells per well in 100 μL of media. After 24 h, the medium was removed, and the cells were treated with increasing concentrations (0.003 → 100 µM) of the compounds diluted in cell media , achieving a total volume of 100 μL/well.
(§6) The cells were incubated with the compound for 4 h (final incubation time 48 h) or 24 h (final incubation time 72 h). After this time, the media was removed and replaced with 100 μL of fresh medium. For the phototoxicity studies, the cells were exposed to light with an Atlas Photonics LUMOS BIO irradiation system. Each well was constantly irradiated at 670 nm (60 min, 13.50 J·cm-2) or 740 nm (60 min, 12.60 J·cm-2). During the irradiation, the temperature of the plate was maintained at 37 °C. The cells were grown in the incubator for an additional 44 or 48 h, respectively. For the determination of the dark cytotoxicity, the cells were not irradiated and after the medium exchange directly incubated for 44 h.
(§7) After this time, the medium was replaced with fresh medium containing resazurin (0.2 mg/mL). After […]
(§8) 4 h of incubation, the conversion of resazurin into resorufin was determined upon excitation at 540 nm and measurement of its emission at 590 nm using a Cytation 5 Imaging Reader from BioTek. The obtained data was analysed with the GraphPad Prism software […]
(§9) After 24 h of incubation at 37 °C, 5% CO 2, plates were read using a SpectraMaxM2 Microplate Reader ( λexc = 540 nm; λread = 590 nm). Fluorescence data were normalised, and data were fitted using GraphPad Prism Software, and IC 50 was calculated by non - linear regression. Changes in the size and shape of MCTS were monitored every 24 h using Cytation 5 Imaging Reader from BioTek, objective x4.
(§10) Intracellular distribution by confocal fluorescence microscopy
(§11) 10^4 cells/well (A2780 cells) were seeded in complete medium (RPMI) in µ -slide 8 well (Ibidi) (100 µl/well) and left for 24 h to attach to the bottom. Then, the culture medium was removed , and 100 µl of solution of the corresponding complexes (5 µM) was added. The complexes were incubated with the cells for 4 hours. Thereafter, the medium was removed and replaced by RPMI without phenol red , and Hoechst and MitoTracker Green were added at a final concentration of 1 µg/mL. They were incubated with the cells for 30 min in the dark at 37 °C. Images were collected in a sequential mode in a Leica TCS SP8 confocal microscope with a 60x oil immers ion objective, a line average of 4, and a format of […]
(§12) (MTG)→ 500 -550nm, and 488 nm (complexes)→ 680 -730 nm. The confocal pinhole was 1 Airy unit.
(§13) Images were analysed with LAS X Flim FCS software.
(§14) Intracellular distribution by ICP -MS

The subject of a further assay is A2780 MCTSs. As to the kind of experiment: Growth kinetics (diameter) of spheroids. It counts as cell-based, human. Conditions: 0.5 µM, irradiated 1 h at 740 nm, after 72 h. The method, then:
A2780 spheroids (ca. 500 µm in diameter) were treated with increasing concentrations of the compounds and after 24 h of incubation, the medium was replaced with fresh medium, and the cells were either kept in the dark or irradiated for 1 h at 740 nm. Images of the spheroids were taken every 24 h for 3 days.
Figure 4 Changes in the growth kinetics of A2780 MCTSs treated with complex Os‐Pt‐Cer, Os, ceritinib, oxaliplatin, and cisplatin at 0.5 and 5 µM for irradiated and dark groups, respectively, and non‐treated as control. Images were collected on 0, 4, 24, and 72 h after the creation of the groups. Scale bar: 1000 µm.
4 h of incubation, the conversion of resazurin into resorufin was determined upon excitation at 540 nm and measurement of its emission at 590 nm using a Cytation 5 Imaging Reader from BioTek. The obtained data was analysed with the GraphPad Prism software
MCTS were cultured using ultra-low attachment 96 wells plates from Corning (Fisher Scientific 15329740). A2780 cells were seeded at a density of 1,500 cells per well in 100 μL of RPMI. Within 2-3 days, MCTSs have approximately 500 μm of diameter. The formation as well as integrity and diameter of the MCTSs were monitored by microscopy.
(Photo-)cytotoxicity on 3D multicellular tumor spheroids (MCTS) […]
Intracellular distribution by confocal fluorescence microscopy […]
Images were analysed with LAS X Flim FCS software. […]

A further assay deals with A549 cells. In words: (Photo-)cytotoxicity on 2D cell monolayers, resazurin assay. The format is cell-based. To be noted: for IC50: A549, normoxic, 4 h exposure. The method, then:
as §1, §2, §3, §4, §5, §6, §7, §8, §9, §10, §11, §12, §13, §14
A general note: Alamar Blue is a resazurin reagent that responds to reducing activity.

In a further assay the test system is RPE‐1 cells. The description is as above. The format is cell-based. Conditions: RPE‐1, normoxic, dark, 4 h exposure, total 48 h incubation, read-out: IC50 Dark. The method, then:
as §1, §2, §3, §4, §5, §6, §7, §8, §9, §10, §11, §12, §13, §14

Where [1] appears, read: Homo sapiens, dark, total 48 h incubation, read-out: IC50 Dark.

Structures are written as SMILES. Read-outs that look alike come from different tables or passages of the source.

What is called IC50 is the concentration that gives 50% inhibition. In the case of `Cc1cc(Nc2ncc(Cl)c(Nc3ccccc3S(=O)(=O)C(C)C)n2)c(OC(C)C)cc1C1CCNCC1` [Ceritinib], the IC50 was 2.61 ± 0.5 µM in the assay on A2780 cells (Homo sapiens), 3.8 ± 0.09 µM with A549 cells (setting [1]) and 4.76 ± 0.2 µM with RPE‐1 cells (Homo sapiens). Moreover, in the assay on A2780 MCTSs, the “change of MCTS diameter” value is recorded as “increased with time”.
For the compound `O=C1[O][Pt]2([NH][C@@H]3CCCC[C@H]3[NH]2)[O]C1=O` [Oxaliplatin], the IC50 with A2780 cells is 46.15 ± 0.2 µM; in the assay on A549 cells (dark, total 48 h incubation, read-out: IC50 Dark), 2.8 ± 0.13 µM; in the assay on RPE‐1 cells it was more than 100 µM. Besides, the “change of MCTS diameter” value with A2780 MCTSs is reported as “increased with time”.
Take `C=Cc1c(C)c2cc3nc(c(CC(=O)O)c4[nH]c(cc5nc(cc1[nH]2)C(C)=C5CC)c(C)c4C(=O)O)[C@@H](CCC(=O)O)[C@@H]3C` [Ce6, Chlorin e6]: the “PI (IC50 dark/IC50 irradiation 740 nm)” value in the assay on A549 cells (A549) is not below 17. Besides, the 50% inhibitory concentration (IC50) was 5.86 ± 0.82 µM in the assay with A549 cells (Homo sapiens, 740 nm (60 min, 12.60 J·cm^−2), total 48 h, read-out: IC50 Irrad. 740 nm) and more than 100 µM in the assay on A549 cells (setting [1]).

These data come from article PMC12668304, “A Triple Threat Against Ovarian Cancer: Os(II)‐Pt(IV)‐Ceritinib Conjugates for Photodynamic Therapy, Chemotherapy, and Immunogenic Cell Death Induction” (Angewandte Chemie (International Ed. in English), 2025).
